Read-outs that look alike come from different tables or passages of the source.
How the values were obtained:
T-47D [1] = experiment: Caspase cascade activation assay (N-(Ac-DEVD)-N'-ethoxycarbonyl-R110 fluorogenic substrate) in T-47D cells; format: cell-based, Human; conditions: for EC50: read-out: Caspase potency EC50; for Caspase activity (Ratio): ratio of net RFU of compound to control, 0.16 to 10 μM final
Method: (§1) Human breast cancer cell lines T-47D and ZR-75-1 were grown according to media component mixtures designated by American Type Culture Collection +10% FCS (Invitrogen Corporation), in a 5% CO2–95% humidity incubator at 37° C. T-47D and ZR-75-1 cells were maintained at a cell density between 30 and 80% confluency and for HL-60 at a cell density of 0.1 to 0.6×10^6 cells/mL. Cells were harvested at 600×g and resuspended at 0.65×10^6 cells/mL into appropriate media +10% FCS. An aliquot of 45 μL of cells was added to a well of a 96-well microtiter plate containing 5 μL of a 10% DMSO in RPMI-1640 media solution containing 1.6 to 100 μM of 1-benzoyl-3-cyano-pyrrolo[1,2-a]quinoline or other test compound (0.16 to 10 μM final). An aliquot of 45 μL of cells was added to a well of a 96-well microtiter plate containing 5 μL of a 10% DMSO in RPMI-1640 media solution without test compound as the control sample. The samples were mixed by agitation and then incubated at 37° C. for 24 h in a 5% CO2–95% humidity incubator. After incubation, the samples were removed from the incubator and 50 μL of a solution containing 20 μM of N-(Ac-DEVD)-N′-ethoxycarbonyl-R110 fluorogenic substrate (SEQ ID NO:1) (Cytovia, Inc.; U.S. Pat. No. 6,335,429), 20% sucrose (Sigma), 20 mM DTT (Sigma), 200 mM NaCl (Sigma), 40 mM Na PIPES buffer pH 7.2 (Sigma), and 500 μg/mL lysolecithin (Calbiochem) was added. The samples were mixed by agitation and incubated at room temperature. Using a fluorescent plate reader (Model 1420 Wallac Instruments), an initial reading (T=0) was made approximately 1–2 min after addition of the substrate solution, employing excitation at 485 nm and emission at 530 nm, to determine the background fluorescence of the control sample. After approximately 3 h of incubation, the samples were read for fluorescence as above (T=3 h).
(§2) The Relative Fluorescence Unit values (RFU) were used to calculate the sample readings as follows: RFU(T=3h)−Control RFU(T=0)=Net RFU(T=3h)
(§3) The activity of caspase cascade activation was determined by the ratio of the net RFU value for 1-benzoyl-3-cyano-pyrrolo[1,2-a]quinoline to that of control samples. The EC50 (nM) was determined by a sigmoidal dose-response calculation (Prism 2.0, GraphPad Software Inc.).

ZR-75-1 = experiment: Caspase cascade activation assay (N-(Ac-DEVD)-N'-ethoxycarbonyl-R110 fluorogenic substrate) in ZR-75-1 cells; format: cell-based, Human; conditions: for EC50: read-out: Caspase potency EC50; for Caspase activity (Ratio): ratio of net RFU of compound to control, 0.16 to 10 μM final
Method: as §1, §2, §3

T-47D [2] = experiment: Inhibition of cell proliferation (GI50, CellTiter 96 AQueous One Solution) in T-47D cells; format: cell-based, Human; conditions: read-out: GI50 (dose for 50% inhibition of cell proliferation)
Method: (§4) T-47D and SKBr-3 cells were grown and harvested as in Example 84. An aliquot of 90 μL of cells (2.2×10^4 cells/mL) was added to a well of a 96-well microtiter plate containing 10 μl of a 10% DMSO in RPMI-1640 media solution containing 1 nM to 100 μM of 1-benzoyl-3-cyano-pyrrolo[1,2-a]quinoline (0.1 nM to 10 μM final). An aliquot of 90 μL of cells was added to a well of a 96-well microtiter plate containing 10 μL of a 10% DMSO in RPMI-1640 media solution without compound as the control sample for maximal cell proliferation (AMax). The samples were mixed by agitation and then incubated at 37° C. for 48 h in a 5% CO2–95% humidity incubator. After incubation, the samples were removed from the incubator and 20 μL of CellTiter 96 AQUEOUS One Solution Cell Proliferation™ reagent (Promega) was added. The samples were mixed by agitation and incubated at 37° C. for 2–4 h in a 5% CO2–95% humidity incubator. Using an absorbance plate reader (Model 1420 Wallac Instruments), an initial reading (T=0) was made approximately 1–2 min after addition of the solution, employing absorbance at 490 nm. This determines the possible background absorbance of the test compounds. No absorbance for 1-benzoyl-3-cyano-pyrrolo[1,2-a]quinoline was found at 490 nm. After the 2–4 h incubation, the samples were read for absorbance as above (ATest).
(§5) Baseline for GI50 (dose for 50% inhibition of cell proliferation) of initial cell numbers were determined by adding an aliquot of 90 μL of cells or 90 μL of media, respectively, to wells of a 96-well microtiter plate containing 10 μL of a 10% DMSO in RPMI-1640 media solution. The samples were mixed by agitation and then incubated at 37° C. for 0.5 h in a 5% CO2–95% humidity incubator. After incubation, the samples were removed from the incubator and 20 μL of CellTiter 96 AQUEOUS One Solution Cell Proliferation ™ reagent (Promega) was added. The samples were mixed by agitation and incubated at 37° C. for 2–4 h in a 5% CO2–95% humidity incubator. Absorbance was read as above, (AStart) defining absorbance for initial cell number used as baseline in GI50 determinations. […]

SKBr-3 = experiment: Inhibition of cell proliferation (GI50, CellTiter 96 AQueous One Solution) in SKBr-3 cells; format: cell-based; conditions: read-out: GI50 (dose for 50% inhibition of cell proliferation)
Method: as §4, §5

[3] = Homo sapiens, T47D, T-47D, 24 h incubation, sigmoidal dose-response
[4] = Homo sapiens, ZR-75-1, 24 h incubation, sigmoidal dose-response

For Cc1ccc2c(ccc3c(C#N)cc(C(=O)c4ccccc4)n32)c1 [Example 13, 1-Benzoyl-3-cyano-7-methyl-pyrrolo[1,2-a]quinoline], the EC50 (T-47D [1]; [3]) was over 10000 nM, the “Caspase activity (Ratio)” value (T-47D [1]; T-47D, 24 h incubation) was 1 and the EC50 (ZR-75-1; [4]) was 5640 nM. For the same molecule, the “Caspase activity (Ratio)” value (ZR-75-1; ZR-75-1, 24 h incubation) was 2.

COc1ccc(C(=O)c2cc(C#N)c3ccc4ccccc4n23)cc1 [Example 7, 3-Cyano-1-(4-methoxy-benzoyl)-pyrrolo[1,2-a]quinoline] was tested, and the EC50 (T-47D [1]; [3]) was 351 nM, the “Caspase activity (Ratio)” value (T-47D [1]; T-47D, 24 h incubation) was 13 and the EC50 (ZR-75-1; [4]) was 185 nM. The “Caspase activity (Ratio)” value (ZR-75-1; ZR-75-1, 24 h incubation) was 17.

For N#Cc1cc(C(=O)c2ccc(F)cc2)n2c1ccc1ccccc12 [Example 9, 3-Cyano-1-(4-fluoro-benzoyl)-pyrrolo[1,2-a]quinoline], the EC50 (T-47D [1]; [3]) was 150 nM, the “Caspase activity (Ratio)” value (T-47D [1]; T-47D, 24 h incubation) was 12 and the EC50 (ZR-75-1; [4]) was 150 nM. The “Caspase activity (Ratio)” value (ZR-75-1; ZR-75-1, 24 h incubation) was 12.

N#Cc1cc(C(=O)c2ccc([N+](=O)[O-])cc2)n2c1ccc1ccccc12 [Example 10, 3-Cyano-1-(4-nitro-benzoyl)-pyrrolo[1,2-a]quinoline] was tested, and the EC50 (T-47D [1]; [3]) was 2180 nM, the “Caspase activity (Ratio)” value (T-47D [1]; T-47D, 24 h incubation) was 6 and the EC50 (ZR-75-1; [4]) was 1260 nM. The “Caspase activity (Ratio)” value (ZR-75-1; ZR-75-1, 24 h incubation) was 14.

With N#Cc1cc(C(=O)c2ccc(Cl)cc2)n2c1ccc1ccccc12 [Example 8, 1-(4-Chloro-benzoyl)-3-cyano-pyrrolo[1,2-a]quinoline] the EC50 (T-47D [1]; [3]) was 587 nM, the “Caspase activity (Ratio)” value (T-47D [1]; T-47D, 24 h incubation) was 12 and the EC50 (ZR-75-1; [4]) was 2580 nM. For the same molecule, the “Caspase activity (Ratio)” value (ZR-75-1; ZR-75-1, 24 h incubation) was 11.

N#Cc1cc(C(=O)c2ccccc2)n2c3c(ccc12)CCCC3 [Example 2, 1-Benzoyl-3-cyano-6,7,8,9-tetrahydro-pyrrolo[1,2-a]quinoline] was tested, and the EC50 (T-47D [1]; [3]) was over 10000 nM, the “Caspase activity (Ratio)” value (T-47D [1]; T-47D, 24 h incubation) was 1 and the EC50 (ZR-75-1; [4]) was 5300 nM. The “Caspase activity (Ratio)” value (ZR-75-1; ZR-75-1, 24 h incubation) was 2.

N#Cc1cc(C(=O)c2ccc(N3CCCC3)cc2)n2c1ccc1ccccc12 [Example 1, 3-Cyano-1-(4-pyrrolidin-1-yl-benzoyl)-pyrrolo[1,2-a]quinoline] was tested, and the GI50 (T-47D [2]; Homo sapiens, T47D, T-47D, 48 h incubation) was 36 nM, the EC50 (T-47D [1]; [3]) was 157 nM and the “Caspase activity (Ratio)” value (T-47D [1]; T-47D, 24 h incubation) was 10. For the same molecule, the EC50 (ZR-75-1; [4]) was 133 nM, the “Caspase activity (Ratio)” value (ZR-75-1; ZR-75-1, 24 h incubation) was 7 and the GI50 (SKBr-3; Homo sapiens, SK-BR-3, SKBR-3, 48 h incubation) was 42 nM.

COc1cccc(C(=O)c2cc(C#N)c3ccc4ccccc4n23)c1 [Example 4, 3-Cyano-1-(3-methoxy-benzoyl)-pyrrollo[1,2-a]quinoline] was tested, and the GI50 (T-47D [2]; T-47D, 48 h incubation) was 138 nM, the EC50 (T-47D [1]; T-47D, 24 h incubation, sigmoidal dose-response) was 463 nM and the “Caspase activity (Ratio)” value (T-47D [1]; T-47D, 24 h incubation) was 12. For the same molecule, the EC50 (ZR-75-1; ZR-75-1, 24 h incubation, sigmoidal dose-response) was 624 nM, the “Caspase activity (Ratio)” value (ZR-75-1; ZR-75-1, 24 h incubation) was 10 and the GI50 (SKBr-3; SKBR-3, 48 h incubation) was 93 nM.

Cc1cc2c(C#N)cc(C(=O)c3ccccc3)n2c2ccccc12 [Example 12, 1-Benzoyl-3-cyano-5-methyl-pyrrolo[1,2-a]quinoline] was tested, and the EC50 (T-47D [1]; [3]) was 1160 nM, the “Caspase activity (Ratio)” value (T-47D [1]; T-47D, 24 h incubation) was 14 and the EC50 (ZR-75-1; [4]) was 493 nM. For the same molecule, the “Caspase activity (Ratio)” value (ZR-75-1; ZR-75-1, 24 h incubation) was 13.

In the case of N#Cc1cc(C(=O)c2ccccc2)n2c1ccc1ccccc12 [Example A, 1-benzoyl-3-cyano-pyrrolo[1,2-a]quinoline], the GI50 (T-47D [2]; Homo sapiens, T47D, 48 h) is reported as 30 nM, the EC50 (T-47D [1]; Homo sapiens, T47D, 24 h) is reported as 242 nM and the “Caspase activity (Ratio)” value (T-47D [1]; T-47D, 24 h incubation) is reported as 7. For the same molecule, the EC50 (ZR-75-1; Homo sapiens, ZR-75-1, 24 h) was 243 nM, the “Caspase activity (Ratio)” value (ZR-75-1; ZR-75-1, 24 h incubation) was 10 and the GI50 (SKBr-3; Homo sapiens, SK-BR-3, 48 h) was 32 nM.

Cc1ccc(C(=O)c2cc(C#N)c3ccc4ccccc4n23)cc1 [Example 6, 3-Cyano-1-(4-methyl-benzoyl)-pyrrolo[1,2-a]quinoline] was tested, and the EC50 (T-47D [1]; [3]) was 2410 nM, the “Caspase activity (Ratio)” value (T-47D [1]; T-47D, 24 h incubation) was 12 and the EC50 (ZR-75-1; [4]) was 1400 nM. The “Caspase activity (Ratio)” value (ZR-75-1; ZR-75-1, 24 h incubation) was 14.

For N#Cc1cc(C(=O)c2ccccc2)n2ccccc12 [Example 3, 3-Benzoyl-1-cyano-indolizine], the EC50 (T-47D [1]; [3]) was over 10000 nM, the “Caspase activity (Ratio)” value (T-47D [1]; T-47D, 24 h incubation) was 1 and the EC50 (ZR-75-1; [4]) was over 10000 nM. The “Caspase activity (Ratio)” value (ZR-75-1; ZR-75-1, 24 h incubation) was 1.

With N#Cc1cc(C(=O)c2cccc(Br)c2)n2c1ccc1ccccc12 [Example 5, 1-(3-Bromo-benzoyl)-3-cyano-pyrrolo[1,2-a]quinoline] the EC50 (ZR-75-1; [4]) was 159 nM and the “Caspase activity (Ratio)” value (ZR-75-1; ZR-75-1, 24 h incubation) was 11.

N#Cc1cc(C(=O)c2ccc(N)cc2)n2c1ccc1ccccc12 [Example 11, 1-(4-Amino-benzoyl)-3-cyano-pyrrolo[1,2-a]quinoline] was tested, and the EC50 (T-47D [1]; [3]) was 148 nM, the “Caspase activity (Ratio)” value (T-47D [1]; T-47D, 24 h incubation) was 17 and the EC50 (ZR-75-1; [4]) was 147 nM. For the same molecule, the “Caspase activity (Ratio)” value (ZR-75-1; ZR-75-1, 24 h incubation) was 15.
